Data published in PubChem BioAssay (NCI).
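Cultured in 96-well plates, cells were exposed to test compound for 48 hours across five concentrations. At the GI50, growth is halved. TGI denotes the concentration required for complete inhibition of growth.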

Key:
Assay in all cases: growth of human tumour cells (NCI), 48 h
UO-31 renal = system: UO-31 renal
SK-OV-3 ovarian = system: SK-OV-3 ovarian
786-0 renal = system: 786-0 renal
TK-10 renal = system: TK-10 renal
RXF 393 renal = system: RXF 393 renal
ACHN renal = system: ACHN renal
SF-295 CNS = system: SF-295 CNS
NCI-H23 lung = system: NCI-H23 lung
SF-268 CNS = system: SF-268 CNS
UACC-62 melanoma = system: UACC-62 melanoma
MCF7 breast = system: MCF7 breast
UACC-257 melanoma = system: UACC-257 melanoma
LOX IMVI melanoma = system: LOX IMVI melanoma
K-562 leukemia = system: K-562 leukemia
HCC-2998 colon = system: HCC-2998 colon
PC-3 prostate = system: PC-3 prostate
DU-145 prostate = system: DU-145 prostate
SR leukemia = system: SR leukemia
A549 NSCLC = system: A549 NSCLC
RPMI-8226 leukemia = system: RPMI-8226 leukemia
HCT-116 colon = system: HCT-116 colon
HS 578T breast = system: HS 578T breast
SW-620 colon = system: SW-620 colon
SK-MEL-2 melanoma = system: SK-MEL-2 melanoma
HT29 colon = system: HT29 colon
HCT-15 colon = system: HCT-15 colon
EKVX NSCLC = system: EKVX NSCLC
CCRF-CEM leukemia = system: CCRF-CEM leukemia
OVCAR-8 ovarian = system: OVCAR-8 ovarian
HL-60(TB) leukemia = system: HL-60(TB) leukemia
U251 CNS = system: U251 CNS
MDA-MB-435 = system: MDA-MB-435
HOP-92 NSCLC = system: HOP-92 NSCLC
SNB-19 CNS = system: SNB-19 CNS
M14 melanoma = system: M14 melanoma
NCI-H226 lung = system: NCI-H226 lung
MOLT-4 leukemia = system: MOLT-4 leukemia
NCI-H522 lung = system: NCI-H522 lung
NCI-H460 lung = system: NCI-H460 lung
NCI/ADR-RES ovarian = system: NCI/ADR-RES ovarian
T-47D breast = system: T-47D breast
HOP-62 NSCLC = system: HOP-62 NSCLC
IGROV1 ovarian = system: IGROV1 ovarian
OVCAR-3 ovarian = system: OVCAR-3 ovarian
BT-549 breast = system: BT-549 breast
KM12 colon = system: KM12 colon
SF-539 CNS = system: SF-539 CNS
A498 renal = system: A498 renal
MDA-MB-231 breast = system: MDA-MB-231 breast
SK-MEL-5 melanoma = system: SK-MEL-5 melanoma
OVCAR-4 ovarian = system: OVCAR-4 ovarian
SN12C renal = system: SN12C renal
COLO 205 colon = system: COLO 205 colon
CAKI-1 renal = system: CAKI-1 renal
SK-MEL-28 melanoma = system: SK-MEL-28 melanoma
SNB-75 CNS = system: SNB-75 CNS
OVCAR-5 ovarian = system: OVCAR-5 ovarian
MALME-3M melanoma = system: MALME-3M melanoma

COc1ccc(Cn2cc3c(c2-c2ccc(O)cc2)CCc2cnoc2-3)cc1
GI50 (UO-31 renal): 0.653 µM | TGI (UO-31 renal): 18.7 µM | GI50 (SK-OV-3 ovarian): 0.34 µM | TGI (SK-OV-3 ovarian): 14.3 µM | GI50 (786-0 renal): 0.695 µM | TGI (786-0 renal): 19.1 µM | GI50 (TK-10 renal): 0.603 µM | TGI (TK-10 renal): 24.4 µM | GI50 (RXF 393 renal): 0.309 µM | TGI (RXF 393 renal): 3.67 µM | GI50 (ACHN renal): 0.956 µM | TGI (ACHN renal): 19.5 µM | GI50 (SF-295 CNS): 0.225 µM | TGI (SF-295 CNS): 2.49 µM | GI50 (NCI-H23 lung): 0.461 µM | TGI (NCI-H23 lung): 17.8 µM | GI50 (SF-268 CNS): 0.784 µM | TGI (SF-268 CNS): 18.5 µM | GI50 (UACC-62 melanoma): 0.54 µM | TGI (UACC-62 melanoma): 17.6 µM | GI50 (MCF7 breast): 0.333 µM | TGI (MCF7 breast): 15.5 µM | GI50 (UACC-257 melanoma): 13.7 µM | TGI (UACC-257 melanoma): 30.6 µM | GI50 (LOX IMVI melanoma): 0.713 µM | TGI (LOX IMVI melanoma): 18.8 µM | GI50 (K-562 leukemia): 0.13 µM | TGI (K-562 leukemia): 16.6 µM | GI50 (HCC-2998 colon): 0.602 µM | TGI (HCC-2998 colon): 12.9 µM | GI50 (PC-3 prostate): 0.653 µM | TGI (PC-3 prostate): 44.5 µM | GI50 (DU-145 prostate): 0.365 µM | TGI (DU-145 prostate): 5.14 µM | GI50 (SR leukemia): 0.149 µM | TGI (SR leukemia): 3.79 µM | GI50 (A549 NSCLC): 0.477 µM | TGI (A549 NSCLC): 18.4 µM | GI50 (RPMI-8226 leukemia): 0.365 µM | TGI (RPMI-8226 leukemia): 6.36 µM | GI50 (HCT-116 colon): 0.422 µM | TGI (HCT-116 colon): 14.7 µM | GI50 (HS 578T breast): 0.252 µM | TGI (HS 578T breast): 6.62 µM | GI50 (SW-620 colon): 0.295 µM | TGI (SW-620 colon): 15.9 µM | GI50 (SK-MEL-2 melanoma): 0.379 µM | TGI (SK-MEL-2 melanoma): 20.2 µM | GI50 (HT29 colon): 0.587 µM | TGI (HT29 colon): 4.79 µM | GI50 (HCT-15 colon): 0.395 µM | TGI (HCT-15 colon): 21.6 µM | GI50 (EKVX NSCLC): 0.438 µM | TGI (EKVX NSCLC): 26.9 µM | GI50 (CCRF-CEM leukemia): 0.304 µM | TGI (CCRF-CEM leukemia): 4.2 µM | GI50 (OVCAR-8 ovarian): 0.633 µM | TGI (OVCAR-8 ovarian): 23.6 µM | GI50 (HL-60(TB) leukemia): 0.221 µM | TGI (HL-60(TB) leukemia): 0.745 µM | GI50 (U251 CNS): 0.447 µM | TGI (U251 CNS): 15.1 µM | GI50 (MDA-MB-435): 0.0737 µM | TGI (MDA-MB-435): 0.365 µM | GI50 (HOP-92 NSCLC): 13.9 µM | TGI (HOP-92 NSCLC): 33.4 µM | GI50 (SNB-19 CNS): 0.586 µM | TGI (SNB-19 CNS): 17.1 µM | GI50 (M14 melanoma): 0.325 µM | TGI (M14 melanoma): 16.5 µM | GI50 (NCI-H226 lung): 4.6 µM | TGI (NCI-H226 lung): 31.3 µM | GI50 (MOLT-4 leukemia): 0.507 µM | TGI (MOLT-4 leukemia): 27.4 µM | GI50 (NCI-H522 lung): 0.0822 µM | TGI (NCI-H522 lung): 0.596 µM | GI50 (NCI-H460 lung): 0.321 µM | TGI (NCI-H460 lung): 4.45 µM | GI50 (NCI/ADR-RES ovarian): 0.19 µM | TGI (NCI/ADR-RES ovarian): 0.946 µM | GI50 (T-47D breast): 0.377 µM | TGI (T-47D breast): 23.7 µM | GI50 (HOP-62 NSCLC): 0.49 µM | TGI (HOP-62 NSCLC): 18.4 µM | GI50 (IGROV1 ovarian): 0.578 µM | TGI (IGROV1 ovarian): 23.6 µM | GI50 (OVCAR-3 ovarian): 0.221 µM | TGI (OVCAR-3 ovarian): 0.557 µM | GI50 (BT-549 breast): 10 µM | TGI (BT-549 breast): 26.7 µM | GI50 (KM12 colon): 0.241 µM | TGI (KM12 colon): 10.4 µM | GI50 (SF-539 CNS): 0.273 µM | TGI (SF-539 CNS): 3.33 µM | GI50 (A498 renal): 0.203 µM | TGI (A498 renal): 0.766 µM | GI50 (MDA-MB-231 breast): 0.699 µM | TGI (MDA-MB-231 breast): 13.3 µM | GI50 (SK-MEL-5 melanoma): 0.315 µM | TGI (SK-MEL-5 melanoma): 12.6 µM | GI50 (OVCAR-4 ovarian): 1.76 µM | TGI (OVCAR-4 ovarian): 19.6 µM | GI50 (SN12C renal): 1.16 µM | TGI (SN12C renal): 23.2 µM | GI50 (COLO 205 colon): 0.577 µM | TGI (COLO 205 colon): 2.01 µM | GI50 (CAKI-1 renal): 0.331 µM | TGI (CAKI-1 renal): 18.8 µM | GI50 (SK-MEL-28 melanoma): 0.616 µM | TGI (SK-MEL-28 melanoma): 21.7 µM | GI50 (SNB-75 CNS): 0.221 µM | TGI (SNB-75 CNS): 0.676 µM | GI50 (OVCAR-5 ovarian): 0.829 µM | TGI (OVCAR-5 ovarian): 21.6 µM

CC(=O)OCC1OC(n2c3c(cc(C#N)c2=S)CCCCCC3)C(OC(C)=O)C(OC(C)=O)C1OC(C)=O (stereo not drawn)
TGI (UO-31 renal): > 100 µM | TGI (786-0 renal): > 100 µM | TGI (TK-10 renal): > 100 µM | TGI (RXF 393 renal): > 100 µM | TGI (ACHN renal): > 100 µM | TGI (MALME-3M melanoma): > 100 µM | TGI (SF-295 CNS): > 100 µM | TGI (NCI-H23 lung): > 100 µM | TGI (SF-268 CNS): > 100 µM | TGI (UACC-62 melanoma): > 100 µM | TGI (MCF7 breast): > 100 µM | TGI (UACC-257 melanoma): > 100 µM | TGI (LOX IMVI melanoma): 49.8 µM | TGI (K-562 leukemia): > 100 µM | TGI (HCC-2998 colon): > 100 µM | TGI (PC-3 prostate): > 100 µM | TGI (DU-145 prostate): > 100 µM | TGI (SR leukemia): > 100 µM | TGI (A549 NSCLC): > 100 µM | TGI (RPMI-8226 leukemia): > 100 µM | TGI (HCT-116 colon): > 100 µM | TGI (HS 578T breast): > 100 µM | TGI (SK-MEL-2 melanoma): > 100 µM | TGI (HT29 colon): > 100 µM | TGI (HCT-15 colon): > 100 µM | TGI (CCRF-CEM leukemia): > 100 µM | TGI (OVCAR-8 ovarian): > 100 µM | TGI (HL-60(TB) leukemia): > 100 µM | TGI (U251 CNS): > 100 µM | TGI (MDA-MB-435): > 100 µM | TGI (HOP-92 NSCLC): > 100 µM | TGI (SNB-19 CNS): > 100 µM | TGI (M14 melanoma): > 100 µM | TGI (NCI-H226 lung): > 100 µM | TGI (MOLT-4 leukemia): > 100 µM | TGI (NCI-H522 lung): > 100 µM | TGI (NCI-H460 lung): > 100 µM | TGI (NCI/ADR-RES ovarian): > 100 µM | TGI (T-47D breast): 30.4 µM | TGI (HOP-62 NSCLC): > 100 µM | TGI (IGROV1 ovarian): > 100 µM | TGI (OVCAR-3 ovarian): > 100 µM | TGI (BT-549 breast): > 100 µM | TGI (KM12 colon): > 100 µM | TGI (SF-539 CNS): > 100 µM | TGI (A498 renal): > 100 µM | TGI (MDA-MB-231 breast): > 100 µM | TGI (SK-MEL-5 melanoma): > 100 µM | TGI (OVCAR-4 ovarian): > 100 µM | TGI (SN12C renal): > 100 µM | TGI (COLO 205 colon): > 100 µM | TGI (SK-MEL-28 melanoma): > 100 µM | TGI (SNB-75 CNS): > 100 µM | TGI (OVCAR-5 ovarian): > 100 µM
